From patent publication US20240246964A1 (Arbutus Biopharma Corporation, priority 2021, published 2024)

molecular target: human PD-L1 (Homo sapiens (Human), UniProt Q9NZQ7); test: T cell activation luciferase reporter cell culture system (T Cell Activation Assay); assay type: cell-based; settings: luciferase reporter assay; PD-L1 aAPC/CHO-K1 cells with PD-1 effector Jurkat T cells
Sequence (Q9NZQ7 19-290): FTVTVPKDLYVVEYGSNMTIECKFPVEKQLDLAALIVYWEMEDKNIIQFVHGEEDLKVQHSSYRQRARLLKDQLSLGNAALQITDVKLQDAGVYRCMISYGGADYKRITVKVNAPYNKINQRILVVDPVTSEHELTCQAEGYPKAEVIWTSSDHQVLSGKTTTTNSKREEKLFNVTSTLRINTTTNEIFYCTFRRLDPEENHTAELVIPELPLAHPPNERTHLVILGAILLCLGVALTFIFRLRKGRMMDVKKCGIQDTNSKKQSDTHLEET

Going from `COCC(=O)N1CC2(CN(Cc3ccc(-c4cccc(-c5ccnc(-c6ccc(CN7CC8(C7)CN(C(C)=O)C8)c(OC)c6)c5Cl)c4Cl)nc3OC)C2)C1` [Example 691, 1-(6-((6-(3-(2-(4-((6-Acetyl-2,6-diazaspiro[3.3]heptan-2-yl)methyl)-3-methoxyphenyl)-3-chloropyridin-4-yl)-2-chlorophenyl)-2-methoxypyridin-3-yl)methyl)-2,6-diazaspiro[3.3]heptan-2-yl)-2-methoxyethan-1-one] to `COCCC(=O)N1CCC(NCc2ccc(-c3cccc(-c4ccnc(-c5ccc(CN6CC7(C6)CN(C(C)=O)C7)c(OC)c5)c4Cl)c3Cl)nc2OC)CC1` [Example 631, 1-(4-(((6-(3-(2-(4-((6-Acetyl-2,6-diazaspiro[3.3]heptan-2-yl)methyl)-3-methoxyphenyl)-3-chloropyridin-4-yl)-2-chlorophenyl)-2-methoxypyridin-3-yl)methyl)amino)piperidin-1-yl)-3-methoxypropan-1-one], the EC50 falls from 67.6 nM to 37.7 nM (1.8-fold). The second is the more potent here.

`COc1cc(-c2ncnc(-c3cccc(-c4ccc(CNC[C@@H]5CCC(=O)N5)c(OC)n4)c3Cl)c2Cl)ccc1CN1CC2(CNC(=O)C2)C1` [Example 742, (S)-2-(4-(5-Chloro-6-(2-chloro-3-(6-methoxy-5-((((5-oxopyrrolidin-2-yl)methyl)amino)methyl)pyridin-2-yl)phenyl)pyrimidin-4-yl)-2-methoxybenzyl)-2,6-diazaspiro[3.4]octan-7-one] and `COc1cc(-c2nccc(-c3cccc(-c4ccc(CNC[C@@H]5CCC(=O)N5)c(OC)n4)c3Cl)c2Cl)ccc1CN1CC2(CNC(=O)C2)C1` [Cmpd 88, (S)-2-(4-(3-chloro-4-(2-chloro-3-(6-methoxy-5-((((5-oxopyrrolidin-2-yl)methyl)amino)methyl)pyridin-2-yl)phenyl)pyridin-2-yl)-2-methoxybenzyl)-2,6-diazaspiro[3.4]octan-7-one] are within 1.5-fold of each other in EC50: 28.6 nM for the first, 24.9 nM for the second.

Compared with `COc1nc(-c2cccc(-c3ccnc(-c4cc(OC)c5nc(CN6CC7(CCC(=O)N7)C6)cn5c4)c3Cl)c2Cl)ccc1CN1CC2(CCC(=O)N2)C1` [Example 454, 2-((6-(2-Chloro-3-(3-chloro-2-(8-methoxy-2-((6-oxo-2,5-diazaspiro[3.4]octan-2-yl)methyl)imidazo[1,2-a]pyridin-6-yl)pyridin-4-yl)phenyl)-2-methoxypyridin-3-yl)methyl)-2,5-diazaspiro[3.4]octan-6-one], `COc1nc(-c2cccc(-c3ccnc(-c4ccc(CN5CC6(CNC(=O)C6)C5)c(OC(F)F)c4)c3Cl)c2Cl)ccc1CN1CC2(CNC(=O)C2)C1` [Example 597, 2-((6-(2-Chloro-3-(3-chloro-2-(3-(difluoromethoxy)-4-((7-oxo-2,6-diazaspiro[3.4]octan-2-yl)methyl)phenyl)pyridin-4-yl)phenyl)-2-methoxypyridin-3-yl)methyl)-2,6-diazaspiro[3.4]octan-7-one] is 12-fold lower in EC50: 203 nM for the first, 16.4 nM for the second. The second is the more potent here.

Compared with `COc1cc(-c2nccc(-c3cccc(-c4ccc(CNC[C@@H]5CCC(=O)N5)c(OC)n4)c3Cl)c2Cl)ccc1CNC1CCOCC1` [Cmpd 127, (S)-5-((((6-(2-chloro-3-(3-chloro-2-(3-methoxy-4-(((tetrahydro-2H-pyran-4-yl)amino)methyl)phenyl)pyridin-4-yl)phenyl)-2-methoxypyridin-3-yl)methyl)amino)methyl)pyrrolidin-2-one], `COc1cc(-c2nccc(-c3cccc(-c4ccc(CNC5CCOCC5)c(OC)n4)c3Cl)c2Cl)ccc1CNC1CCN(C(C)=O)CC1` [Example 391, 1-(4-((4-(3-chloro-4-(2-chloro-3-(6-methoxy-5-(((tetrahydro-2H-pyran-4-yl)amino)methyl)pyridin-2-yl)phenyl)pyridin-2-yl)-2-methoxybenzyl)amino)piperidin-1-yl)ethan-1-one] is 1.9-fold lower in EC50: 33.5 nM for the first, 18 nM for the second.

Going from `COc1nc(-c2ccnc(-c3cccc4c3CC[C@@H]4Oc3nc(OC)c(CNC[C@H](C)O)cc3C(F)(F)F)c2Cl)ccc1CNC[C@H](C)O` [Example 253, (S)-1-(((3′-Chloro-2′-((S)-1-((5-((((S)-2-hydroxypropyl)amino)methyl)-6-methoxy-3-(trifluoromethyl)pyridin-2-yl)oxy)-2,3-dihydro-1H-inden-4-yl)-6-methoxy-[2,4′-bipyridin]-5-yl)methyl)amino)propan-2-ol] to `COc1cc(-c2nccc(-c3cccc4c3CC[C@@H]4Oc3nc(OC)c(CNC[C@H](C)O)cc3C(F)(F)F)c2Cl)ccc1CNC[C@H](C)O` [Example 270, (S)-1-(((6-(((S)-4-(3-Chloro-2-(4-((((S)-2-hydroxypropyl)amino)methyl)-3-methoxyphenyl)pyridin-4-yl)-2,3-dihydro-1H-inden-1-yl)oxy)-2-methoxy-5-(trifluoromethyl)pyridin-3-yl)methyl)amino)propan-2-ol], the EC50 rises from 39.2 nM to 85.5 nM (2.2-fold).

Compared with `COc1nc(-c2ccnc(-c3cccc4c3CC[C@@H]4Oc3nc(OC)c(CNC[C@H](C)O)cc3C(F)(F)F)c2Cl)ccc1CN1CC2(CNC(=O)C2)C1` [Example 553, 2-((3′-Chloro-2′-((S)-1-((5-((((S)-2-hydroxypropyl)amino)methyl)-6-methoxy-3-(trifluoromethyl)pyridin-2-yl)oxy)-2,3-dihydro-1H-inden-4-yl)-6-methoxy-[2,4′-bipyridin]-5-yl)methyl)-2,6-diazaspiro[3.4]octan-7-one], `COc1cc(-c2nccc(-c3cccc(-c4ccc(CNC[C@@H]5CCC(=O)N5)c(OC)n4)c3Cl)c2Cl)cc2c1CN(CC1CCN(C(C)=O)CC1)CC2` [Cmpd 62, (S)-5-((((6-(3-(2-(2-((1-acetylpiperidin-4-yl)methyl)-8-methoxy-1,2,3,4-tetrahydroisoquinolin-6-yl)-3-chloropyridin-4-yl)-2-chlorophenyl)-2-methoxypyridin-3-yl)methyl)amino)methyl)pyrrolidin-2-one] is 2-fold lower in EC50: 53 nM for the first, 27 nM for the second. The second is the more potent here.

Going from `COc1cc(-c2nccc(-c3cccc(NC(=O)c4ccc(CNC[C@@H]5CCC(=O)N5)cn4)c3C)c2Cl)ccc1CNC1CCOCC1` [Example 748, (S)—N-(3-(3-chloro-2-(3-methoxy-4-(((tetrahydro-2H-pyran-4-yl)amino)methyl)phenyl)pyridin-4-yl)-2-methylphenyl)-5-((((5-oxopyrrolidin-2-yl)methyl)amino)methyl)picolinamide] to `COc1cc(-c2nccc(-c3cccc(NC(=O)c4ccc(CNCCO)cn4)c3C)c2Cl)ccc1CNC1CCN(C(C)=O)CC1` [Example 700, N-(3-(2-(4-(((1-Acetylpiperidin-4-yl)amino)methyl)-3-methoxyphenyl)-3-chloropyridin-4-yl)-2-methylphenyl)-5-(((2-hydroxyethyl)amino)methyl)picolinamide], the EC50 falls from 1000 nM to 124 nM (8.1-fold). The second is the more potent here.

First: COc1cc(-c2nccc(-c3cccc(NC(=O)c4ccc(CN5CC6(C5)CN(C(C)=O)C6)cn4)c3C)c2Cl)ccc1CN1CC2(C1)CN(C(C)=O)C2 [Example 649, 5-((6-Acetyl-2,6-diazaspiro[3.3]heptan-2-yl)methyl)-N-(3-(2-(4-((6-acetyl-2,6-diazaspiro[3.3]heptan-2-yl)methyl)-3-methoxyphenyl)-3-chloropyridin-4-yl)-2-methylphenyl)picolinamide]
Second: COc1cc(-c2nccc(-c3cccc(NC(=O)c4ccc(CNCCO)cn4)c3C)c2Cl)ccc1CN1CC2(CNC(=O)C2)C1 [Example 744, N-(3-(3-Chloro-2-(3-methoxy-4-((7-oxo-2,6-diazaspiro[3.4]octan-2-yl)methyl)phenyl)pyridin-4-yl)-2-methylphenyl)-5-(((2-hydroxyethyl)amino)methyl)picolinamide]
The EC50 of the first is higher: no less than 10000 nM for the first, 154 nM for the second.

Compared with `COc1nc(-c2cccc(-c3ccnc(-c4cc(OC)c5nc(CN[C@H]6CC[C@H](O)CC6)nn5c4)c3Cl)c2Cl)ccc1CNC[C@@H]1CCC(=O)N1` [Example 260, (S)-5-((((6-(2-Chloro-3-(3-chloro-2-(2-((((1r,4r)-4-hydroxycyclohexyl)amino)methyl)-8-methoxy-[1,2,4]triazolo[1,5-a]pyridin-6-yl)pyridin-4-yl)phenyl)-2-methoxypyridin-3-yl)methyl)amino)methyl)pyrrolidin-2-one], `COc1nc(-c2cccc(-c3ccnc(-c4ccc5c(CNC[C@@H]6CCC(=O)N6)cn(C)c5c4)c3Cl)c2Cl)ccc1CNC[C@@H]1CCC(=O)N1` [Cmpd 11, (S)-5-((((6-(2-chloro-3-(3-chloro-2-(1-methyl-3-(((((S)-5-oxopyrrolidin-2-yl)methyl)amino)methyl)-1H-indol-6-yl)pyridin-4-yl)phenyl)-2-methoxypyridin-3-yl)methyl)amino)methyl)pyrrolidin-2-one] is 3.1-fold higher in EC50: 26.8 nM for the first, 84 nM for the second.

Going from `COc1cc(-c2nccc(-c3cccc(-c4ccc(CN(C)C5CCN(C(C)=O)CC5)c(OC)n4)c3Cl)c2Cl)ccc1CN(C)C1CCN(C(C)=O)CC1` [Cmpd 140, 1-(4-(((6-(3-(2-(4-(((1-acetylpiperidin-4-yl)(methyl)amino)methyl)-3-methoxyphenyl)-3-chloropyridin-4-yl)-2-chlorophenyl)-2-methoxypyridin-3-yl)methyl)(methyl)amino)piperidin-1-yl)ethan-1-one] to `COc1cc(-c2nccc(-c3cccc(-c4ccc(CNC5CCN(C(C)=O)CC5)c(OC)n4)c3Cl)c2C)ccc1CNC1CCN(C(C)=O)CC1` [Example 271, 1-(4-(((6-(3-(2-(4-(((1-Acetylpiperidin-4-yl)amino)methyl)-3-methoxyphenyl)-3-methylpyridin-4-yl)-2-chlorophenyl)-2-methoxypyridin-3-yl)methyl)amino)piperidin-1-yl)ethan-1-one], the EC50 falls from no less than 10000 nM to 183 nM.

First: COc1cc(-c2nccc(-c3cccc(-c4ccc(CN5CC6(COC6)C5)c(OC)n4)c3Cl)c2C)ccc1CN1CC2(COC2)C1 [Example 464, 6-(4-(4-(3-(5-((2-Oxa-6-azaspiro[3.3]heptan-6-yl)methyl)-6-methoxypyridin-2-yl)-2-chlorophenyl)-3-methylpyridin-2-yl)-2-methoxybenzyl)-2-oxa-6-azaspiro[3.3]heptane]
Second: COc1cc(-c2nccc(-c3cccc(-c4ccc(CN[C@@H]5CCN(C(C)=O)C5)c(OC)n4)c3Cl)c2Cl)ccc1CN[C@@H]1CCN(C(C)=O)C1 [Example 374, 1-((R)-3-(((6-(3-(2-(4-((((R)-1-Acetylpyrrolidin-3-yl)amino)methyl)-3-methoxyphenyl)-3-chloropyridin-4-yl)-2-chlorophenyl)-2-methoxypyridin-3-yl)methyl)amino)pyrrolidin-1-yl)ethan-1-one]
The EC50 of the first is 5.1-fold higher: 226 nM for the first, 44.6 nM for the second.
